A word on the IC50: it is the concentration that gives 50% inhibition.

Data on 25 compounds can be found in patent publication US7709471B2, “Compounds” (AstraZeneca AB, priority 2006, dated 2010).

In experiment [1] the test system is human colon tumour cell line HT29. The experiment is described as follows: Cellular Assay (phosphohistone H3 Ser10 mitotic marker, HT29). In kind it is cell-based. Conditions: HT-29, 24 h, HT29 cells, read-out: IC50 (cellular assay, phosphohistone H3).
Experimental: Chromosome condensation in mitosis is accompanied by phosphorylation of histone H3 on serine 10.
After 24 hours, cells were fixed in 3.7% (v/v) formaldehyde then permeabilised and blocked for 10 minutes in 100 μl 0.5% (v/v) Triton X-100, 1% (w/v) bovine serum albumin (BSA) in phosphate buffered saline (PBS). […] The raw assay data were analysed by non-linear regression analysis and used to determine an IC50 value for each compound.
In experiment [2] the target is recombinant Plk1 (Homo sapiens, UniProt P53350). In words: In Vitro Plk1 Enzyme Assay (SPA, GST-Cdc25C phosphorylation). In kind it is biochemical. Conditions: ATP 64 nM, 90 minutes, read-out: IC50 (Plk1 enzyme inhibition).
Chain of recombinant Plk1 (P53350 whole entry): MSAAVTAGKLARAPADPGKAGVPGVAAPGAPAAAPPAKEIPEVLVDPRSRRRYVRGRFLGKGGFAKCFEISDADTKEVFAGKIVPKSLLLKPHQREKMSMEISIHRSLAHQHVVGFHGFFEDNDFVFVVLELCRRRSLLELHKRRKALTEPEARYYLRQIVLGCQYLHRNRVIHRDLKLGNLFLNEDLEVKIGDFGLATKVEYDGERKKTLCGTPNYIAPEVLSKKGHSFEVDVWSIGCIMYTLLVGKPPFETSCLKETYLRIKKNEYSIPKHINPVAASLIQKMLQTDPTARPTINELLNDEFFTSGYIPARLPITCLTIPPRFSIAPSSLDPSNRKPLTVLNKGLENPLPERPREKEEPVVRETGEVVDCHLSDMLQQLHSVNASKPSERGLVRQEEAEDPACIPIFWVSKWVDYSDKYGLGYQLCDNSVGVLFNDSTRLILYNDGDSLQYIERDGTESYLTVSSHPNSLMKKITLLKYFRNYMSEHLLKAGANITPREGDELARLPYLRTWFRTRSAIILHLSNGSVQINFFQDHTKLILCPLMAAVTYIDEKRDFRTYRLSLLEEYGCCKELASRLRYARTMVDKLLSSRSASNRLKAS
Experimental: Reactions were stopped by addition of EDTA (110 mM) and the Cdc25C substrate captured via its GST tag to anti-GST antibody (Molecular Probes, Cat No A-5800) coated Protein A PVT SPA beads (Amersham Biosciences, Catalogue No. RPQ0019; 250 μg/well) in 50 mM HEPES pH7.5 buffer containing 0.05% (w/v) sodium azide and incubated for up to 2 hours, followed by the addition of 20 μl of 4M caesium chloride (final assay concentration of 1M). Plates were then left in the dark overnight before counting on a Packard TopCount NXT.
Radiolabelled phosphorylated substrate is formed in situ as a result of Plk1 mediated phosphorylation. The SPA beads contain a scintillant that can be stimulated to emit light. This stimulation only occurs when a radiolabelled phosphorylated substrate is bound to the surface of the coated SPA bead causing the emission of blue light that can be measured on a scintillation counter. Accordingly, the extent of Plk1 mediated Cdc25C phosphorylation was assessed. The raw assay data were then analysed by non-linear regression analysis and Plk1 enzyme inhibition for a given test compound is expressed as an IC50 value.

For `COc1cc(C(=O)NCCN2CCC(F)(F)CC2)ccc1Nc1ncc2c(n1)N(C1CCCC1)CCC(=O)N2C` [Example 37, 4-[(6-cyclopentyl-2-methyl-3-oxo-2,6,8,10-tetrazabicyclo[5.4.0]undeca-8,10,12-trien-9-yl)amino]-N-[2-(4,4-difluoro-1-piperidyl)ethyl]-3-methoxy-benzamide], the IC50 in experiment [1] is below 0.3 µM; in experiment [2] it was below 1 µM.
On the same counts, the results for `COc1cc(C(=O)NCCCCN)ccc1Nc1ncc2c(n1)N(C1CCCC1)CCC(=O)N2C` [Example 40, N-(4-aminobutyl)-4-[(6-cyclopentyl-2-methyl-3-oxo-2,6,8,10-tetrazabicyclo[5.4.0]undeca-8,10,12-trien-9-yl)amino]-3-methoxy-benzamide] are below 30 µM and below 0.3 µM.
On the same counts, the results for `COc1cc(C(=O)N[C@@H]2CCN(C)C2)ccc1Nc1ncc2c(n1)N(C1CCCC1)CCC(=O)N2C` [Example 62, 4-[(6-cyclopentyl-2-methyl-3-oxo-2,6,8,10-tetrazabicyclo[5.4.0]undeca-8,10,12-trien-9-yl)amino]-3-methoxy-N-[(3R)-1-methylpyrrolidin-3-yl]benzamide] are below 0.3 µM and below 0.3 µM.
The like results for `CN1CCC(NC(=O)c2c(F)cc(Nc3ncc4c(n3)N(C3CCCC3)CCC(=O)N4C)cc2F)CC1` [Example 187, 4-[(6-cyclopentyl-2-methyl-3-oxo-2,6,8,10-tetrazabicyclo[5.4.0]undeca-8,10,12-trien-9-yl)amino]-2,6-difluoro-N-(1-methyl-4-piperidyl)benzamide] were, in that order, below 30 µM and below 100 µM.
For the compound `CN1C(=O)CCN(C2CCCC2)c2nc(Nc3ccc(C(=O)NCCN4CCOCC4)cc3)ncc21` [Example 191, 4-[(6-cyclopentyl-2-methyl-3-oxo-2,6,8,10-tetrazabicyclo[5.4.0]undeca-8,10,12-trien-9-yl)amino]-N-(2-morpholin-4-ylethyl)benzamide], the IC50 in experiment [1] and in experiment [2] was below 1 µM each time.
For `COc1cc(C(=O)NC2CCN(CC3CC3)CC2)ccc1Nc1ncc2c(n1)N(C1CCCC1)CCC(=O)N2C` [Example 319, 4-[(2-cyclopentyl-6-methyl-5-oxo-2,6,9,11-tetrazabicyclo[5.4.0]undeca-7,9,11-trien-10-yl)amino]-N-[1-(cyclopropylmethyl)-4-piperidyl]-3-methoxy-benzamide], the half-inhibitory concentration (IC50) in experiment [1] and in experiment [2] was below 0.3 µM each time.
Take `COc1cc(C(=O)NCCN2CCOCC2)ccc1Nc1ncc2c(n1)N(C1CCCC1)CCC(=O)N2C` [Example 13, 4-[(6-cyclopentyl-2-methyl-3-oxo-2,6,8,10-tetrazabicyclo[5.4.0]undeca-8,10,12-trien-9-yl)amino]-3-methoxy-N-(2-morpholin-4-ylethyl)benzamide]: the half-maximal inhibitory concentration (IC50) in experiment [1] and in experiment [2] was below 0.3 µM throughout.
Turning to `COc1cc(C(=O)NCC2CCCN(C)C2)ccc1Nc1ncc2c(n1)N(C1CCCC1)CCC(=O)N2C` (centres unmarked) [Example 84, 4-[(6-cyclopentyl-2-methyl-3-oxo-2,6,8,10-tetrazabicyclo[5.4.0]undeca-8,10,12-trien-9-yl)amino]-3-methoxy-N-[(1-methyl-3-piperidyl)methyl]benzamide], the IC50 in experiment [1] and in experiment [2] was below 0.3 µM each time.
Turning to `COCCOc1cc(C(=O)NC2CCN(C)CC2)ccc1Nc1ncc2c(n1)N(C1CCCC1)CCC(=O)N2C` [Example 195, 4-[(6-cyclopentyl-2-methyl-3-oxo-2,6,8,10-tetrazabicyclo[5.4.0]undeca-8,10,12-trien-9-yl)amino]-3-(2-methoxyethoxy)-N-(1-methyl-4-piperidyl)benzamide], the IC50 is below 30 µM in experiment [1] and below 1 µM in experiment [2].
For `COc1cc(C(=O)NC(C)CN2CCCCC2)ccc1Nc1ncc2c(n1)N(C1CCCC1)CCC(=O)N2C` (centres unmarked) [Example 73, 4-[(6-cyclopentyl-2-methyl-3-oxo-2,6,8,10-tetrazabicyclo[5.4.0]undeca-8,10,12-trien-9-yl)amino]-3-methoxy-N-[1-(1-piperidyl)propan-2-yl]benzamide], the IC50 in experiment [1] and in experiment [2] was below 0.3 µM throughout.
In the case of `CN1C(=O)CCN(C2CCCC2)c2nc(Nc3cccc(CO)c3)ncc21` [Example 173, 6-cyclopentyl-9-[[3-(hydroxymethyl)phenyl]amino]-2-methyl-2,6,8,10-tetrazabicyclo[5.4.0]undeca-8,10,12-trien-3-one], the IC50 in experiment [1] was below 30 µM; in experiment [2], below 1 µM.
The like results for `CN(C)CC(C)(C)CNC(=O)c1ccc(Nc2ncc3c(n2)N(C2CCCC2)CCC(=O)N3)cc1` [Example 253, 4-[(6-cyclopentyl-3-oxo-2,6,8,10-tetrazabicyclo[5.4.0]undeca-8,10,12-trien-9-yl)amino]-N-(3-dimethylamino-2,2-dimethyl-propyl)benzamide] were, in that order, below 30 µM and below 100 µM.
The like results for `COc1cc(C(=O)NC2CCN(C)CC2)ccc1Nc1ncc2c(n1)N(Cc1ccccc1)CCC(=O)N2C` [Example 215, 4-[(6-benzyl-2-methyl-3-oxo-2,6,8,10-tetrazabicyclo[5.4.0]undeca-8,10,12-trien-9-yl)amino]-3-methoxy-N-(1-methyl-4-piperidyl)benzamide] were, in that order, below 30 µM and below 1 µM.
The like results for `COc1cc(C(=O)N[C@@H]2CC[C@H](C(=O)N(C)C)C2)ccc1Nc1ncc2c(n1)N(C1CCCC1)CCC(=O)N2C` [Example 88, 4-[(6-cyclopentyl-2-methyl-3-oxo-2,6,8,10-tetrazabicyclo[5.4.0]undeca-8,10,12-trien-9-yl)amino]-N-[(1R,3S)-3-(dimethylcarbamoyl)cyclopentyl]-3-methoxy-benzamide] were, in that order, below 0.3 µM and below 100 µM.
In the case of `CCN(CC)CCNC(=O)c1ccc(Nc2ncc3c(n2)N(C2CCCC2)CCC(=O)N3C)c(OC)c1` [Example 18, 4-[(6-cyclopentyl-2-methyl-3-oxo-2,6,8,10-tetrazabicyclo[5.4.0]undeca-8,10,12-trien-9-yl)amino]-N-(2-diethylaminoethyl)-3-methoxy-benzamide], the half-maximal inhibitory concentration (IC50) in experiment [1] and in experiment [2] was below 0.3 µM in each case.
With `COc1cc(C(=O)NC2CCCCC2)ccc1Nc1ncc2c(n1)N(C1CCN(C)CC1)CCC(=O)N2C` [Example 233, N-cyclohexyl-3-methoxy-4-[[2-methyl-6-(1-methyl-4-piperidyl)-3-oxo-2,6,8,10-tetrazabicyclo[5.4.0]undeca-7,9,11-trien-9-yl]amino]benzamide], the IC50 was below 30 µM in experiment [1] and below 1 µM in experiment [2].
`CN1C(=O)CCN(C2CCCC2)c2nc(Nc3ccc(CNC(=O)c4ccccn4)cc3)ncc21` [Example 133, N-[[4-[(6-cyclopentyl-2-methyl-3-oxo-2,6,8,10-tetrazabicyclo[5.4.0]undeca-8,10,12-trien-9-yl)amino]phenyl]methyl]pyridine-2-carboxamide]: the figures for the IC50 in experiment [1] and in experiment [2] were below 30 µM and below 100 µM, respectively.
The like results for `COc1cc(C(=O)NC2CCN(C)CC2)ccc1Nc1ncc2c(n1)N(CC1CC1)CCC(=O)N2C` [Example 213, 4-[[6-(cyclopropylmethyl)-2-methyl-3-oxo-2,6,8,10-tetrazabicyclo[5.4.0]undeca-8,10,12-trien-9-yl]amino]-3-methoxy-N-(1-methyl-4-piperidyl)benzamide] were, in that order, below 0.3 µM and below 0.3 µM.
The like results for `COCCN1CCN(c2ccc(Nc3ncc4c(n3)N(C3CCCC3)CCC(=O)N4C)c(OC)c2)CC1` [Example 105, 6-cyclopentyl-9-[[2-methoxy-4-[4-(2-methoxyethyl)piperazin-1-yl]phenyl]amino]-2-methyl-2,6,8,10-tetrazabicyclo[5.4.0]undeca-8,10,12-trien-3-one] were, in that order, below 30 µM and below 1 µM.
`Cc1ccc(Oc2ccccc2Nc2ncc3c(n2)N(C2CCCC2)CCC(=O)N3C)cc1` [Example 159, 6-cyclopentyl-2-methyl-9-[[2-(4-methylphenoxy)phenyl]amino]-2,6,8,10-tetrazabicyclo[5.4.0]undeca-8,10,12-trien-3-one]: the IC50 is below 30 µM in experiment [1] and below 100 µM in experiment [2].
Regarding `CN1CCC(NC(=O)c2ccc(Nc3ncc4c(n3)N(C3CCCC3)CCC(=O)N4C)c(F)c2)CC1` [Example 194, 4-[(6-cyclopentyl-2-methyl-3-oxo-2,6,8,10-tetrazabicyclo[5.4.0]undeca-8,10,12-trien-9-yl)amino]-3-fluoro-N-(1-methyl-4-piperidyl)benzamide], the 50% inhibitory concentration (IC50) in experiment [1] and in experiment [2] was below 0.3 µM each time.
As to `COCCN1CCC(NC(=O)c2ccc(Nc3ncc4c(n3)N(C3CCCC3)CCC(=O)N4C)c(OC)c2)CC1` [Example 29, 4-[(6-cyclopentyl-2-methyl-3-oxo-2,6,8,10-tetrazabicyclo[5.4.0]undeca-8,10,12-trien-9-yl)amino]-3-methoxy-N-[1-(2-methoxyethyl)-4-piperidyl]benzamide], the IC50 in experiment [1] and in experiment [2] was below 0.3 µM in each case.
In the case of `COc1cc(C(=O)NC2CC(C)(C)N(C)C(C)(C)C2)ccc1Nc1ncc2c(n1)N(C1CCCC1)CCC(=O)N2C` [Example 72, 4-[(6-cyclopentyl-2-methyl-3-oxo-2,6,8,10-tetrazabicyclo[5.4.0]undeca-8,10,12-trien-9-yl)amino]-3-methoxy-N-(1,2,2,6,6-pentamethyl-4-piperidyl)benzamide], the IC50 in experiment [1] and in experiment [2] was below 0.3 µM throughout.
On to `O=C1CCN(C2CCCC2)c2nc(Nc3ccc(C(=O)NCCN4CCOCC4)cc3Cl)ncc2N1` [Example 257, 3-chloro-4-[(6-cyclopentyl-3-oxo-2,6,8,10-tetrazabicyclo[5.4.0]undeca-8,10,12-trien-9-yl)amino]-N-(2-morpholin-4-ylethyl)benzamide], for which the half-inhibitory concentration (IC50) in experiment [1] is below 30 µM; in experiment [2] it was below 100 µM.
Consider `COc1cc(C(=O)NC(C)C)ccc1Nc1ncc2c(n1)N(C1CCCC1)CCC(=O)N2C` [Example 95, 4-[(6-cyclopentyl-2-methyl-3-oxo-2,6,8,10-tetrazabicyclo[5.4.0]undeca-8,10,12-trien-9-yl)amino]-3-methoxy-N-propan-2-yl-benzamide], for which the half-maximal inhibitory concentration (IC50) is below 0.3 µM in experiment [1] and below 1 µM in experiment [2].
